Measurements from ChEMBL document CHEMBL1201862, “PubChem BioAssay data set” (2004).
Active and inactive are the calls of the source. Cut-off read from the data, not from the text of the source, for most assays here: actives have a measured EC50 and inactives only a lower limit.

Experiments:
Protein RecA = target: T1, Protein RecA (Mycobacterium tuberculosis, UniProt P9WHJ3); assay: Fluorescence Cell-Free Homogeneous Dose Retest to Identify Inhibitors of RecA-Intein Splicing Activity. [Related pubchem assays (depositor defined):AID2097, AID2223, AID489010, AID492950]; type: functional
T1 sequence (P9WHJ3 whole entry): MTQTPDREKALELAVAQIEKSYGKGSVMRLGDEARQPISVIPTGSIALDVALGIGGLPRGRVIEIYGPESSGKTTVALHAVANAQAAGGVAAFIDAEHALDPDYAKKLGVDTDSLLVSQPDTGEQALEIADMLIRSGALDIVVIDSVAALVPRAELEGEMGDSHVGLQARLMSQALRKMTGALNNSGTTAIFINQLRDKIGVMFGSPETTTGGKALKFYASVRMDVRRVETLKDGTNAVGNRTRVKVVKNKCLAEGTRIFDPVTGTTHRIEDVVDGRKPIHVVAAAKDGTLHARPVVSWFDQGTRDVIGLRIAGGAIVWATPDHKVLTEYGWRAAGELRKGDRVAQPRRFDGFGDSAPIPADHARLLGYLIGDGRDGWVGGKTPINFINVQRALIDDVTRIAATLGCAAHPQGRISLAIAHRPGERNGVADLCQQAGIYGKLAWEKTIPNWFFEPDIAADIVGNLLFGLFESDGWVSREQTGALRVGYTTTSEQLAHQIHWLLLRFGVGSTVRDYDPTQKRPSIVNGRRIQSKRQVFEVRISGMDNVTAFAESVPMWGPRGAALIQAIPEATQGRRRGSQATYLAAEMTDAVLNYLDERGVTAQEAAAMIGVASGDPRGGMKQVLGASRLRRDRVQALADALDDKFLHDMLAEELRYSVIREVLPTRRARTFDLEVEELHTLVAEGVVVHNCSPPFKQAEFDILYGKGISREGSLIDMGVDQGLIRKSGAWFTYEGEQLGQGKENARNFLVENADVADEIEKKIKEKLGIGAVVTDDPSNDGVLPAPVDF

H4 = assay: Luminescence Cell-Based Dose Response HTS to Identify Activators of 5'UTR Stem-Loop Driven Prion Protein mRNA Translation in H4 Neuroglioblastoma Cells. [Related pubchem assays: 1829 (Project Summary), 1814 (Primary HTS)]; type: functional; details: Homo sapiens
[1] = HEp-2 cell cytotoxicity, dose response, cytotoxicity control for RSV inhibitor project, HTS (AID 2410); type: functional; details: human respiratory syncytial virus
[2] = Luminescence Cell-Based Dose Response HTS to Identify Activators of Luciferase Translation or Activity in H4 […] Cells. [Related pubchem assays: 1829 (Project Summary), 1814 (Primary HTS)]; type: functional
[3] = target: T2, Replicative DNA helicase DnaB (Mycobacterium tuberculosis, UniProt P9WMR3); assay: DnaB intein splicing inhibitors, dose response, biochemical, cell-free fluorescence (AID 449749); type: functional
T2 sequence (P9WMR3 whole entry): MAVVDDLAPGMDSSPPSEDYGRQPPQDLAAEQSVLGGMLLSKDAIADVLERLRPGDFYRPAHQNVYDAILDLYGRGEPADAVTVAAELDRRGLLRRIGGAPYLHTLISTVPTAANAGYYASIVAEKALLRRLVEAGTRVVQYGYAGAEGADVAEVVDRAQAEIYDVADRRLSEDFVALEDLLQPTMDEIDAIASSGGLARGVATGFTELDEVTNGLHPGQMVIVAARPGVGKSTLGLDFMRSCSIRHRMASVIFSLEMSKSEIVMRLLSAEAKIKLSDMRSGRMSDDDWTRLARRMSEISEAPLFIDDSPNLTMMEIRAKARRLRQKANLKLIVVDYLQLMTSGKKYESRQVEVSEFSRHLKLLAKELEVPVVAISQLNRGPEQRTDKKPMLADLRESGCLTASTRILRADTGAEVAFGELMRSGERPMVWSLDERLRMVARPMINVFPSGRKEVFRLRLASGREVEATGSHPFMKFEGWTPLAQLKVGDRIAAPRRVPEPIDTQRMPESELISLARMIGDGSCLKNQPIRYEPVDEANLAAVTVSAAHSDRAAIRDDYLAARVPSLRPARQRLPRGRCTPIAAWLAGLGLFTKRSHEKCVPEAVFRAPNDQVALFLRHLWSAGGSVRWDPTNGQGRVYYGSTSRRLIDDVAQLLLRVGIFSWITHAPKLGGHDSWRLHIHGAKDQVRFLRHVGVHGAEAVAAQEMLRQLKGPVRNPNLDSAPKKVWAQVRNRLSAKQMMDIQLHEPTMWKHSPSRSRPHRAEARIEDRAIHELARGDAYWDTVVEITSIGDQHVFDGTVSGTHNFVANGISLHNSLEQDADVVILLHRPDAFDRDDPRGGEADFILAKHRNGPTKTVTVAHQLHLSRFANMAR

cells [4] = type: functional, cell-based
cells [5] = type: functional, cell-based; remark: listed apart in the source
[6] = target: T3, Carboxy-terminal domain RNA polymerase II polypeptide A small phosphatase 1 (Homo sapiens, UniProt Q9GZU7); assay: inhibitors of CTDSP1, concentration-response testing, biochemical assay, absorbance-based, actives from ultra-high-throughput screening (AID 540297); type: functional
T3 sequence (Q9GZU7 whole entry): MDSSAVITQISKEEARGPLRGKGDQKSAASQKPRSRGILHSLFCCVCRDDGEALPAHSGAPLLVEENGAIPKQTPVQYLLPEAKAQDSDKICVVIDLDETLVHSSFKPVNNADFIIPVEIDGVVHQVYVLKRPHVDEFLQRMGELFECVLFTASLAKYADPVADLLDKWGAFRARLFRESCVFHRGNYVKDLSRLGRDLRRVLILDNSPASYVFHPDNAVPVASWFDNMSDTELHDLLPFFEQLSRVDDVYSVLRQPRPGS

[7] = target: T4, Heat shock factor protein 1 (Mus musculus, UniProt P38532); assay: inhibition of MG132-induced HSE-luciferase signal, confirmation, cell-based, NIH3T3, luminescence, dose retest (AID 2382); type: functional;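 note: NIH3T3 fibroblasts with HSF1-driven luciferase reporter stressed by proteasome inhibitor MG132; luminescence from HSF1-driven luciferase expression after 8 hours of MG132 stress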
T4 sequence (P38532 whole entry): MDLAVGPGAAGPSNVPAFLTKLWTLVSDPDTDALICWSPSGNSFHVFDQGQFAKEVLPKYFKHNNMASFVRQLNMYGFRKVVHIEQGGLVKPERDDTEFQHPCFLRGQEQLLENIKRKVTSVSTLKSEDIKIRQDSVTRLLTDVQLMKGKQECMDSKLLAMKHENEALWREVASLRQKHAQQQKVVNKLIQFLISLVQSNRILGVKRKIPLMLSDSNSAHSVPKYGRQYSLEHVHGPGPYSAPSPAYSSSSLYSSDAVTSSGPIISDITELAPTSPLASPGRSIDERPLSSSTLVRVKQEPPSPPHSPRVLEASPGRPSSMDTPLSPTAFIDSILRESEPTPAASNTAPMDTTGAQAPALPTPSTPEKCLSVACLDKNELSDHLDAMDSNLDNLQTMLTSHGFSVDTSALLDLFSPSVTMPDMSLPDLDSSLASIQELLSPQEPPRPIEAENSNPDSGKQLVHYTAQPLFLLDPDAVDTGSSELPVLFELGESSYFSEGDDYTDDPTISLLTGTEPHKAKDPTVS

[8] = target: T5, RNA-binding protein pos-1 (Caenorhabditis elegans, UniProt G5EF15); assay: inhibitors of POS-1/mex-3 RNA binding, dose response, biochemical, fluorescence polarization (AID 1964);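 note: purified POS-1 fused to maltose binding protein made in E. coli; potency of compounds blocking POS-1 binding to fluorescent RNA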
T5 sequence (G5EF15 whole entry): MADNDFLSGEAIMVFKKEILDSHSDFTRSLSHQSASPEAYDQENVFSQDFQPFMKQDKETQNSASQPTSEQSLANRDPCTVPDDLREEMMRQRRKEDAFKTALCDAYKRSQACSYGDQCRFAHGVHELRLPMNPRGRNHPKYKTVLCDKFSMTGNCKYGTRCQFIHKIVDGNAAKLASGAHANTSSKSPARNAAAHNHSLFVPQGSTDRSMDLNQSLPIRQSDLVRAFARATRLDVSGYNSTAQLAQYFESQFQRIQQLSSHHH

[9] = target: T6, Zinc finger protein mex-5 (Caenorhabditis elegans, UniProt Q9XUB2); assay: MEX-5/TCR-2 RNA interaction inhibitors, dose response, biochemical, C. elegans, fluorescence polarization (AID 1960)
T6 sequence (Q9XUB2 whole entry): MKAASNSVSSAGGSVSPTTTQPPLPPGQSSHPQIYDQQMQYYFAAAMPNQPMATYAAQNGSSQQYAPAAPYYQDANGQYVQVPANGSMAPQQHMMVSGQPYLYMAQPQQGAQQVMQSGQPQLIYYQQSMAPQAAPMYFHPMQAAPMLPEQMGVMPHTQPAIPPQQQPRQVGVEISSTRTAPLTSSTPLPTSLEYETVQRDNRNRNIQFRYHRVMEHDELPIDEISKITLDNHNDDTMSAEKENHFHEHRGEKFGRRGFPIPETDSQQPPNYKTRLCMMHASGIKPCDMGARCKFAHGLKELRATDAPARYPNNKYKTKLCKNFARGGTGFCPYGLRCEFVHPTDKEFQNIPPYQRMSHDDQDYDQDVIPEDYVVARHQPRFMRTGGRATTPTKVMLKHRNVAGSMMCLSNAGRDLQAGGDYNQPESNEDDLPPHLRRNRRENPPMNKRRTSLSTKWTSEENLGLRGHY

H9c2 = assay: cells; type: functional, cell-based; details: Rattus norvegicus, H9c2, Myocardium;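 note: confirmatory concentration-response retest of ultra-high-throughput screening hits for modulation of myocardial damage; cell death induced by hydrogen peroxide oxidative stress; compound pretreatment for 60 min then peroxide exposure for 2 h; potency is for protecting the cells against peroxide damage rather than for killing them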
Cytochrome P450 2C9 = Cytochrome P450 2C9 (Homo sapiens, UniProt P11712)
Sequence of Cytochrome P450 2C9 (P11712 whole entry): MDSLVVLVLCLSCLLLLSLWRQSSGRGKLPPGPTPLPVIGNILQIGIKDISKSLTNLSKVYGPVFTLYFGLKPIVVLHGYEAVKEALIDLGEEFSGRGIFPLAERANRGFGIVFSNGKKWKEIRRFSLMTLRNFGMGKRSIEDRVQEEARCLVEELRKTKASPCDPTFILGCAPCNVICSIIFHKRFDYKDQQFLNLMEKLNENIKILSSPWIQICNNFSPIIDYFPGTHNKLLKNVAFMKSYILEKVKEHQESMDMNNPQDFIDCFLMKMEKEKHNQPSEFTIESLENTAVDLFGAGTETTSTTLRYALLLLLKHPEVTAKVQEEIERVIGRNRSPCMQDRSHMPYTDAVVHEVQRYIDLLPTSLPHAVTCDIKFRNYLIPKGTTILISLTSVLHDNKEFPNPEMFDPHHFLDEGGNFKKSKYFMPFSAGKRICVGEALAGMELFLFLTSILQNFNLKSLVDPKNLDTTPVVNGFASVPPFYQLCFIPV

Cytochrome P450 3A4 = Cytochrome P450 3A4 (Homo sapiens, UniProt P08684);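 note: CYP3A4 tested as one member of a cytochrome P450 panel screen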
Sequence of Cytochrome P450 3A4 (P08684 whole entry): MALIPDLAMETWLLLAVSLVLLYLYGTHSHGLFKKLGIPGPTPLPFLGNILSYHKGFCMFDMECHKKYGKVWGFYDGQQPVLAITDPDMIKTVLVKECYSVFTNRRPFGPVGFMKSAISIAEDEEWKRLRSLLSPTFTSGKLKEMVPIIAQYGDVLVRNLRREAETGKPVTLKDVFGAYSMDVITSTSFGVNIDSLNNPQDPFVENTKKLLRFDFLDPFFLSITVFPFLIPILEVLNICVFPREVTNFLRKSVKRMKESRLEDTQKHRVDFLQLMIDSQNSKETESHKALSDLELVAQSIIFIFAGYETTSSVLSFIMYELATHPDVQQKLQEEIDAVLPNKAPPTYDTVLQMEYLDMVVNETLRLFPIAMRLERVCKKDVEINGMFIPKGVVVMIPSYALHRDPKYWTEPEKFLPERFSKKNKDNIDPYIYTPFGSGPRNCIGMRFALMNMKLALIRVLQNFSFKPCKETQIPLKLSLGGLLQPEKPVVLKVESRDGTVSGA

CCOC(=O)c1c(C)oc2c1c1c(c3ccccc32)OCN(CCCC(=O)O)C1
EC50 (Protein RecA): 4.11 µM (active) | EC50 (H4): 11 µM (active) | CC50 [1]: 43.6 µM (active) | EC50 [2]: 22.8 µM (active) | AC50 [3]: > 120 µM (inactive)

COC(=O)c1[nH]c2ccccc2c1/C=C1\C(=O)NC(=O)N(c2cc(OC)ccc2OC)C1=O
EC50 (cells [4]): 73.1 µM (active) | EC50 (cells [5]): > 350 µM (not active)

O=C(COC(=O)c1ccc2c(c1Cl)C(=O)c1ccccc1C2=O)NC1CC1
EC50 (Protein RecA): 12.9 µM (active) | AC50 [3]: 26.2 µM (active)

COc1cccc(C(=O)c2cn(CC(=O)NCc3ccco3)c3nc(C)ccc3c2=O)c1
IC50 [6]: 11.2 µM (active)

O=C(O)CSc1ccccc1C(=O)O
EC50 [7]: > 195 µM (not active)

Cc1nc2c(ncn2-c2ccccc2)c(=O)n1NC(=O)CN1CCOCC1
EC50 [7]: > 195 µM (not active)

C#CCOc1ccc(Br)cc1C(c1c(C)n[nH]c1O)c1c(C)n[nH]c1O
EC50 (Protein RecA): 1.03 µM (active) | AC50 [3]: 0.973 µM (active)

CCCc1n[nH]c2c1C(c1cccc(OC(=O)c3ccco3)c1)C(C#N)=C(N)O2 (configuration not stated)
EC50 (Protein RecA): 4.91 µM (active) | AC50 [3]: 5.48 µM (active)

CCc1ccc(C2C(=O)c3ccccc3C2=O)cc1
EC50 (cells [4]): 30.8 µM (active) | EC50 (cells [5]): > 350 µM (not active)

Cc1sc(-c2ccccn2)nc1OC(=O)c1cccc(Cl)c1Cl
EC50 [8]: > 300 µM (not active) | EC50 [9]: > 300 µM (not active)

Cc1cc(Cl)ccc1OC(C)C(=O)NC(C)C1CCCO1 (configuration not stated)
EC50 [7]: > 195 µM (not active)

CCCOc1ccc(C(=O)C2=C(O)C(=O)N(CCN(C)C)C2c2ccc(O)c(OC)c2)cc1 (configuration not stated)
EC50 [7]: > 195 µM (not active)

O=C(Nc1ccnn1C1CCN(CC2CC=CCC2)CC1)c1ccccc1 (configuration not stated)
EC50 [8]: 43.2 µM (active) | EC50 [9]: 52.3 µM (active)

O=C(COC(=O)CCc1nc(O)c2ccccc2n1)Nc1c(Cl)cccc1C(F)(F)F
IC50 (H9c2): > 79 µM (inactive) | EC50 [7]: > 195 µM (not active)

COCCN1CCC(CNCc2c(C(=O)N3CCCCC3)nc3c(C)cccn23)C1 (configuration not stated)
EC50 [8]: > 300 µM (not active) | EC50 [9]: > 300 µM (not active)

O=C(COC(=O)C1CCCC1)Nc1ncc(Cl)cc1Cl
EC50 [8]: > 300 µM (not active) | EC50 [9]: 34.3 µM (active)

O=C1CCN(S(=O)(=O)c2ccccc2)N1
AC50 (Cytochrome P450 2C9): 12.6 µM (inconclusive) | AC50 (Cytochrome P450 3A4): 28.2 µM (inconclusive) | EC50 (Protein RecA): 3.73 µM (active) | AC50 [3]: 31.2 µM (active)

NN1C(=O)/C(=C2/Sc3ccccc3N2CCCS(=O)(=O)O)SC1=S
IC50 [6]: 8.53 µM (active)

Cc1cc(N2CCC(C)CC2)n2ncc(-c3ccccc3)c2n1
EC50 [7]: < 0.16 µM (active)

COc1cccc(-n2c(N)c(-c3nc4ccccc4[nH]3)sc2=S)c1
EC50 [7]: > 195 µM (not active)

COc1ccccc1/C=C/CN1CCC(Oc2cc(C(=O)NC3CC3)ccc2OC)CC1
EC50 [7]: > 195 µM (not active)

COc1ccc(CCNC(=O)c2nnn(CC(=O)Nc3c(C)cc(C)cc3C)c2N)cc1OC
EC50 (cells [4]): > 350 µM (not active) | EC50 (cells [5]): > 350 µM (not active)

Cc1ccc(C2C(C#N)=C(N)Oc3[nH]nc(C)c32)cc1 (configuration not stated)
EC50 (Protein RecA): 3.56 µM (active) | AC50 [3]: 7.89 µM (active)

CCOC(=O)c1ccc(NC(=O)CC2COc3ccccc3O2)cc1 (configuration not stated)
EC50 [7]: > 195 µM (not active)

COC(=O)C1=C(COc2ccccc2)NC(=O)NC1c1ccc2ccccc2c1 (configuration not stated)
IC50 [6]: 13.8 µM (active)

Cc1ccccc1NC(=O)CN1C(=O)S/C(=C\c2cccn2-c2cccc(C(=O)O)c2)C1=O
EC50 [8]: > 300 µM (not active) | EC50 [9]: > 300 µM (not active) | IC50 [6]: 4.23 µM (active)

O=C(N/N=C/c1ccccn1)c1cc(-c2ccc(Br)s2)n[nH]1
IC50 [6]: 8.5 µM (active)

CCc1ccc(OCc2cccc(C(=O)N/N=C\c3cnn(C)c3C)c2)cc1
IC50 [6]: 9.07 µM (active)

Cc1cccc(C)c1NC(=O)CN1C(=O)S/C(=C\c2cccn2-c2cccc(C(=O)O)c2)C1=O
EC50 [8]: > 300 µM (not active) | EC50 [9]: 60 µM (active) | IC50 [6]: 6.71 µM (active)
